Here are results for 3 compounds from patent US11173126B2, “Nanoalum particles comprising a PAA sizing agent” (priority 2016, dated 2021).

The subject of one series is C57Bl/6 mice. The conditions noted are these: mouse, in vivo.
The test system of the next series is C57/BL6 mice. Conditions: mouse, in vivo.
The nature of series [1]: Particle size (Z-ave) and polydispersity by dynamic light scattering. Type of series: physicochemical. The conditions noted are these: single non-pegylated phospholipid included during milling; data not shown.

Turning to Poly(acrylic acid) [PAA], the “ID97-specific CD4+ T cell response (CD154, IFN-γ, TNF, IL-2)” value with C57Bl/6 mice is reported as “low frequency”. For the same compound, the “luciferase expression from RNA replicon” value in the series on C57/BL6 mice is on record as “does not deliver and/or induce an expressible level”.

Regarding `CCCCCCCCCCCCCC(=O)OC[C@H](COP(=O)(O)OCCN)OC(=O)CCCCCCCCCCCCC` [DMPE], in series [1], the “effectiveness as sizing agent (aggregation of alum)” value is recorded as “not found to be effective sizing agents”.

Turning to “Distearoylglycerophosphoethanolamine [DSPE]”, in series [1], the “effectiveness as sizing agent (aggregation of alum)” value is given as “not found to be effective sizing agents”.
